# Assay results taken from patent US8957093B2, “N-biphenylmethylindole modulators of PPARG” (The Scripps Research Institute, priority 2011, dated 2015).
# Like-named read-outs stand apart in the source and are kept apart here.
# Columns and labels:
# GST-PPARG-LBD = GST-PPARG-LBD (Homo sapiens (Human), UniProt P37231); assay: Lanthascreen PPARG competitive binding assay (Invitrogen, TR-FRET); settings: Lanthascreen competitive binding; NA = not active; inc = incomplete curve; read-out: IC50 (nM) Lantha
# Chain of GST-PPARG-LBD (P37231 238-503): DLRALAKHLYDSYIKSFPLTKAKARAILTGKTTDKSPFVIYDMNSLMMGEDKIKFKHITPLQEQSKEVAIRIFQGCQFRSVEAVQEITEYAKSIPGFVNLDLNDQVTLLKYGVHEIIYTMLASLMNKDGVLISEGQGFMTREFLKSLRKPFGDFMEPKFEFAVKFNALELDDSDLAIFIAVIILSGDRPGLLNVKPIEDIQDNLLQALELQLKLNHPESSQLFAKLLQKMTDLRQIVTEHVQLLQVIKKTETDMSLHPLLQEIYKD
# In short: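 TR-FRET competitive binding of GST-PPARG-LBD with 5 nM Tb-GST-antibody and 5 nM Fluormone Pan-PPAR Green tracer, in TR-FRET buffer C. Compound serially diluted from 10 μM, 2 h dark incubation, in triplicate. Readout is 520/490 nm emission ratio (340 nm excitation), expressed as fold change over 2% DMSO control.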
# [1] = tested on: PPARG (murine PPARg2 or full-length human PPARG, 3xPPRE-luciferase reporter); assay: Cell-based PPRE-luciferase transactivation assay in COS-1 cells; settings: for EC50: read-out: EC50 (nM) PPRE
# Description: Cell-Based Transactivation Assay:
# PPRE is a DNA that contains a binding site for PPARG; thus PPRE is a PPAR response element, used herein as a promoter reporter. The binding site is a DR1 response element with the sequence AGGTCA repeated 3 times in tandem and then fused to a construct for luciferase.
# Thus, PPRE is the basis of the cell based transactivation assay described below. The plasmid DNA is co-transfected along with a plasmid for PPARG into COS-1 cells. After an overnight incubation, cells are treated with DMSO or compounds.
# Confluent COS-1 cells were transfected with 4.5 μg murine PPARg2-pSV Sport or full-length human PPAR9-pSport6, 4.5 μg 3×PPRE-luciferase reporter and 27 μL X-treme Gene 9 transfection reagent in serum-free opti-mem media (Gibco), followed by overnight incubation at 37° C., 5% CO2. Transfected cells were plated in white Perkin Elmer 384-well plates and incubated 4 hours. […] After 18 hour incubation, treated cells were developed with Brite Lite Plus (Perkin Elmer) and read in 384-well Luminescence Perkin Elmer EnVision Multilabel plate reader. Graphs were plotted in triplicate in GraphPad Prism Software as fold change of treated cells over DMSO control cells.
# [2] = PPRE-luciferase, COS-1 cells, NA = not active
SMILES,IC50 (GST-PPARG-LBD) [nM],"EC50 [1, 2] [nM]",PPRE transactivation (% in parentheses) ([1]; rosiglitazone = 100%),PPRE transactivation (% in parentheses) [1],EC50 [1] [nM]
"Cc1c(C)n(Cc2ccc(-c3ccccc3C(=O)O)cc2)c2ccc(C(=O)NCc3ccc(C#N)cc3)cc12 [compound 8, 4′-((5-(4-Cyanobenzylcarbamoyl)-2,3-dimethyl-1H-indol-1-yl)methyl)biphenyl-2-carboxylic acid]",34,9000,(12%),,
"Cc1c(C)n(Cc2ccc(-c3ccccc3C(=O)O)cc2)c2ccc(C(=O)NCc3cccc(S(C)(=O)=O)c3)cc12 [compound 4, 4′-((2,3-Dimethyl-5-(3-(methylsulfonyl)benzylcarbamoyl)-1H-indol-1-yl)methyl)biphenyl-2-carboxylic acid]",230,,(0%),,
"Cc1c(C)n(Cc2ccc(-c3ccccc3C(=O)O)cc2)c2ccc(C(=O)NCc3ccc(Cl)cc3)cc12 [compound 14, 4′-((5-(4-Chlorobenzylcarbamoyl)-2,3-dimethyl-1H-indol-1-yl)methyl)biphenyl-2-carboxylic acid]",4,70,(21%),,
"Cc1c(C)n(Cc2ccc(-c3ccccc3C(=O)O)cc2)c2ccc(C(=O)N[C@@H](CO)c3ccccc3)cc12 [Example 79, (R)-4′-((5-(2-hydroxy-1-phenylethylcarbamoyl)-2,3-dimethyl-1H-indol-1-yl)methyl)biphenyl-2-carboxylic acid]",37,297,(25%),,
"Cc1c(C)n(Cc2ccc(-c3ccccc3C(=O)O)cc2)c2ccc(C(=O)N[C@@H](C)c3cccc(Br)c3)cc12 [compound 30, (S)-4′-((5-((1-(3-Bromophenyl)ethyl)carbamoyl)-2,3-dimethyl-1H-indol-1-yl)methyl)-[1,1′-biphenyl]-2-carboxylic acid]",58,,,(18%),20
"Cc1c(C)n(Cc2ccc(-c3ccccc3C(=O)O)cc2)c2ccc(C(=O)NCc3ccc(N)cc3)cc12 [Example 95, 4′-((5-(4-aminobenzylcarbamoyl)-2,3-dimethyl-1H-indol-1-yl)methyl)biphenyl-2-carboxylic acid]",4,,(0%),,
"Cc1c(C)n(Cc2ccc(-c3ccccc3C(=O)O)cc2)c2ccc(C(=O)NCc3ccc(I)cc3)cc12 [compound 7, 4′-((5-(4-Iodobenzylcarbamoyl)-2,3-dimethyl-1H-indol-1-yl)methyl)biphenyl-2-carboxylic acid]",4,19,(23%),,
"COC(=O)c1ccc(CNC(=O)c2ccc3c(c2)c(C)c(C)n3Cc2ccc(-c3ccccc3C(=O)O)cc2)cc1 [compound 16, 4′-((5-(4-(Methoxycarbonyl)benzylcarbamoyl)-2,3-dimethyl-1H-indol-1-yl)methyl)biphenyl-2-carboxylic acid]",2,59,(23%),,
"Cc1c(C)n(Cc2ccc(-c3ccccc3C(=O)O)cc2)c2ccc(C(=O)NC(C)c3cccc4ccccc34)cc12 (stereo not shown) [Example 116, 4′-((2,3-dimethyl-5-(1-(naphthalen-1-yl)ethylcarbamoyl)-1H-indol-1-yl)methyl)biphenyl-2-carboxylic acid]",2,5,(16%),,
"Cc1c(C)n(Cc2ccc(-c3ccccc3C(=O)O)cc2)c2ccc(C(=O)NC[C@H](C)c3ccccc3)cc12 [Example 74, (R)-4′-((2,3-dimethyl-5-(2-phenylpropylcarbamoyl)-1H-indol-1-yl)methyl)biphenyl-2-carboxylic acid]",76,300,(26%),,
"COc1cccc([C@H](C)NC(=O)c2ccc3c(c2)c(C)c(C)n3Cc2ccc(-c3ccccc3C(=O)O)cc2)c1 [compound 21, (S)-4′-((5-(1-(3-Methoxyphenyl)ethylcarbamoyl)-2,3-dimethyl-1H-indol-1-yl)methyl)biphenyl-2-carboxylic acid]",13,46,(12%),,
"Cc1c(C)n(Cc2ccc(-c3ccccc3C(=O)O)cc2)c2ccc(C(=O)NC3COc4ccccc4C3)cc12 (stereo not shown) [Example 86, 4′-((5-(chroman-3-ylcarbamoyl)-2,3-dimethyl-1H-indol-1-yl)methyl)biphenyl-2-carboxylic acid]",10,,(0%),,
"Cc1c(C)n(Cc2ccc(-c3ccccc3-c3nnn[nH]3)cc2)c2ccc(C(=O)N[C@@H](C)c3ccc(Br)cc3)cc12 [Example 37, (S)-1-((2′-(1H-tetrazol-5-yl)-[1,1′-biphenyl]-4-yl)methyl)-N-(1-(4-bromophenyl)ethyl)-2,3-dimethyl-1H-indole-5-carboxamide]",> 1000,1000,(19%),,
"Cc1c(C)n(Cc2ccc(-c3ccccc3C(=O)O)cc2)c2ccc(C(=O)NCc3ccc(N(C)C)cc3)cc12 [compound 11, 4′-((5-(4-(Dimethylamino)benzylcarbamoyl)-2,3-dimethyl-1H-indol-1-yl)methyl)biphenyl-2-carboxylic acid]",13,154,(29%),,
"Cc1c(C)n(Cc2ccc(-c3ccccc3C(=O)O)cc2)c2ccc(C(=O)NCc3cccc(Cl)c3)cc12 [Example 109, 4′-((5-(3-chlorobenzylcarbamoyl)-2,3-dimethyl-1H-indol-1-yl)methyl)biphenyl-2-carboxylic acid]",2,12,(21%),,
"Cc1c(C)n(Cc2ccc(-c3ccccc3C(=O)O)cc2)c2ccc(C(=O)NCc3ccc(S(N)(=O)=O)cc3)cc12 [compound 17, 4′-((2,3-Dimethyl-5-(4-sulfamoylbenzylcarbamoyl)-1H-indol-1-yl)methyl)biphenyl-2-carboxylic acid]",300,,(0%),,
"CCC[C@H](NC(=O)c1ccc2c(c1)c(C)c(C)n2Cc1ccc(-c2ccccc2C(=O)O)cc1)c1ccccc1 [Example 114, (S)-4′-((2,3-dimethyl-5-(1-phenylbutylcarbamoyl)-1H-indol-1-yl)methyl)biphenyl-2-carboxylic acid]",0.8,8,(14%),,
"Cc1c(C)n(Cc2ccc(-c3ccccc3C(=O)O)cc2)c2ccc(C(=O)NCC3COc4ccccc4O3)cc12 (stereo not shown) [Example 88, 4′-((5-((2,3-dihydrobenzo[b][1,4]dioxin-2-yl)methylcarbamoyl)-2,3-dimethyl-1H-indol-1-yl)methyl)biphenyl-2-carboxylic acid]",11,170,(17%),,
"Cc1c(C)n(Cc2ccc(-c3ccccc3C(=O)O)cc2)c2ccc(C(=O)NC3CCCC3)cc12 [Example 90, 4′-((5-(cyclopentylcarbamoyl)-2,3-dimethyl-1H-indol-1-yl)methyl)biphenyl-2-carboxylic acid]",25,> 1000,(18%),,
"CCC(NC(=O)c1ccc2c(ccn2Cc2cccc(-c3ccccc3C(=O)O)c2)c1)c1ccccc1 (stereo not shown) [Example 65, 3′-((5-((1-phenylpropyl)carbamoyl)-1H-indol-1-yl)methyl)-[1,1′-biphenyl]-2-carboxylic acid]",6,116,(18%),,
"Cc1c(C)n(Cc2ccc(-c3ccccc3C(=O)O)cc2)c2ccc(C(=O)NC(C)(C)c3ccccc3)cc12 [compound 25, 4′-((2,3-Dimethyl-5-((2-phenylpropan-2-yl)carbamoyl)-1H-indol-1-yl)methyl)-[1,1′-biphenyl]-2-carboxylic acid]",0.5,2.5,(15%),,
"CCC(NC(=O)c1ccc2c(ccn2Cc2ccc(-c3ccccc3C(=O)O)cc2)c1)c1ccccc1 (stereo not shown) [Example 131, 4′-((5-((1-Phenylpropyl)carbamoyl)-1H-indol-1-yl)methyl)-[1,1′-biphenyl]-2-carboxylic acid]",6,6,(20%),,
"Cc1c(C)n(Cc2ccc(-c3ccccc3C(=O)O)cc2)c2ccc(C(=O)N[C@@H]3COc4ccccc4C3)cc12 [Example 250, (S)-4′-((5-(chroman-3-ylcarbamoyl)-2,3-dimethyl-1H-indol-1-yl)methyl)-[1,1′-biphenyl]-2-carboxylic acid]",88,,(0%),,
"CCC(NC(=O)c1ccc2c(ccn2Cc2cccc(-c3ccc(C(=O)O)cc3)c2)c1)c1ccccc1 (stereo not shown) [Example 67, 3′-((5-((1-Phenylpropyl)carbamoyl)-1H-indol-1-yl)methyl)-[1,1′-biphenyl]-4-carboxylic acid]",2,2,(8%),,
